This is an account of results in patent US20250059208A1, “KRAS MODULATING COMPOUNDS” (priority 2023, published 2025).

Assay [1] deals with GDP-loaded wild-type KRAS (WT) (Homo sapiens, UniProt P01116). Description: KRAS (GDP) biochemical TR-FRET probe displacement assay, WT. In kind it is binding. As to conditions: 2 hours at room temperature. The procedure:
(§1) • Compounds were tested for binding to GDP-loaded wild-type KRAS (WT), KRAS-G12C, KRAS-G12D, and KRAS-G12V in a 384-well assay format using a TR-FRET probe displacement assay in buffer consisting of 50 mM Hepes (pH 7.4), 150 mM NaCl. 5 mM MgCl2 and 0.005% Tween-20. 0.03 nM KRAS was used in this assay with 0.02 nM Eu-streptavidin and 12 nM Cy-5 labelled probe. Compounds were serially diluted (1:3) in DMSO. The LabCyte ECHO Acoustic dispenser was used to pre-spot the assay plates (384-well Non-Binding Surface plates, Corning, Catalog #3824) with 50 nL of compound. 5 μL of 2× enzyme concentration was added to the pre-spotted plates and incubated for 30 minutes before adding 5 μL of 2× concentration of Eu-streptavidin and Cy-5 labelled probe (10 μL final reaction volume). The plates were incubated at room temperature for 2 hours before measuring TR-FRET ratio (665 nm/615 nm) on the Envision multimode plate reader. The ratios were normalized to a positive (saturating concentration of known inhibitor) and negative (DMSO) control and plotted against the log of compound concentration. […]

A further assay has as its target GDP-loaded KRAS-G12C (Homo sapiens, UniProt P01116, G12C). The assay is described as follows: KRAS (GDP) biochemical TR-FRET probe displacement assay, G12C. It counts as binding. As to conditions: 2 hours at room temperature. The method, then:
as §1
For orientation: TR-FRET usually uses a lanthanide donor and a delayed reading to cut background.

The target of another assay is GDP-loaded KRAS-G12V (Homo sapiens, UniProt P01116, G12V). The assay is described as follows: KRAS (GDP) biochemical TR-FRET probe displacement assay, G12V. The conditions noted are these: 2 hours at room temperature. It counts as binding. The method, then:
as §1

Another assay addresses GDP-loaded KRAS-G12D (Homo sapiens, UniProt P01116, G12D). The assay is described as follows: KRAS (GDP) biochemical TR-FRET probe displacement assay, G12D. It counts as binding. As to conditions: 2 hours at room temperature. The method, then:
as §1

The test system of assay [2] is cellular pERK in Kuramochi (WT KRAS) cell-line. The assay is described as follows: Cell based pERK assay, Kuramochi. The conditions noted are these: 2 h, Kuramochi (WT KRAS) cells, 2 hours compound incubation, HTRF Phospho-ERK1/2. The method, then: (§2) Compounds were tested in a 384-well assay format for their ability to inhibit cellular pERK in Kuramochi (WT KRAS), MIA-PaCa-2 (KRAS-G12C), ASPC-1 (KRAS G12D), and NCI-H441 (KRAS-G12V) cell-lines. Compounds were serially diluted (1:3) in DMSO. On day −1, 80 μL of cells were plated per well in the 384 well tissue-culture plates (Greiner: Cat #781080) to seed 5000 cells per wells of AsPC-1 or 7500 cells of MIA-PaCa-2, NCI-H441, and Kuramochi cell lines in RPMI (Corning: Cat #10-040-CM) with 10% fetal bovine serum (FBS) (HyClone: Cat #SH30071-03) and IX penicillin-streptomycin-glutamate (PSG) (Corning: Cat #30-009-C1) for […] and Kuramochi cell lines and DMEM (Corning: Cat #15-018-CM) with 10% FBS and 1×PSG for MIA-PaCa-2 cell line. The plates were then incubated overnight at 37° C. and 5% CO2. On day 0, 400 nL of compound/well was added into the cell plates and mixed 5 times by pipetting using a Beckmann Biomek FX. The cell plates were then incubated for 2 hours at 37° C. and 5% CO2. HTRF Advanced Phospho-ERK1/2 (THR202/TYR204) Detection Kits (PerkinElmer: Cat #64AERPEG) were used to prepare the lysis and detection solution according to manufacturer protocol. Following the 2 hour incubation, 70 μL of medium was aspirated from the plates and 10 μL of lysis and detection solution was added to the plates using a Biotek EL406 washer and dispenser. Plates were sealed and stored overnight at room temperature. HTRF ratio (665 nm/615 nm) was read by Envision multimode reader (PerkinElmer) the next day. The TR-FRET ratios were normalized to a positive (saturating concentration of known inhibitor) and negative (DMSO) control and plotted against the log of compound concentration.

In assay [3] the test system is cellular pERK in MIA-PaCa-2 (KRAS-G12C) cell-line. The assay is described as follows: Cell based pERK assay, MIA-PaCa-2. As to conditions: Homo sapiens; MIA-PaCa-2 (KRAS-G12C) cells, 2 hours compound incubation, HTRF Phospho-ERK1/2; read-out: MIAPaCa2 pERK EC50. The procedure:
as §2

For assay [4], the system named is cellular pERK in NCI-H441 (KRAS-G12V) cell-line. The assay is described as follows: Cell based pERK assay, NCI-H441. As to conditions: Homo sapiens; NCI-H441 (KRAS-G12V) cells, 2 hours compound incubation, HTRF Phospho-ERK1/2. The method, then: as §2
Assay [5] concerns cellular pERK in ASPC-1 (KRAS G12D) cell-line. Description: Cell based pERK assay, ASPC-1. As to conditions: Homo sapiens, ASPC1, 2 h, ASPC-1 (KRAS G12D) cells, 2 hours compound incubation, HTRF Phospho-ERK1/2. The procedure:
as §2

SMILES strings stand for the structures.

In general, IC50 refers to the concentration that inhibits the measured activity by half. Read a low IC50 as greater potency. As usually defined, the EC50 is the concentration giving half of the maximal effect.

Chain of GDP-loaded KRAS-G12C (P01116 1-188 isoform P01116-2 G12C): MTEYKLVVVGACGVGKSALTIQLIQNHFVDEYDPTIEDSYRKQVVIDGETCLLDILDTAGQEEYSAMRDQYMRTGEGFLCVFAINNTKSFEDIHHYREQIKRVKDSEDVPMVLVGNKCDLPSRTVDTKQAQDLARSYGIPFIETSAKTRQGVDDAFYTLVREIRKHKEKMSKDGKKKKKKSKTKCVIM
Chain of GDP-loaded wild-type KRAS (WT) (P01116 1-188 isoform P01116-2): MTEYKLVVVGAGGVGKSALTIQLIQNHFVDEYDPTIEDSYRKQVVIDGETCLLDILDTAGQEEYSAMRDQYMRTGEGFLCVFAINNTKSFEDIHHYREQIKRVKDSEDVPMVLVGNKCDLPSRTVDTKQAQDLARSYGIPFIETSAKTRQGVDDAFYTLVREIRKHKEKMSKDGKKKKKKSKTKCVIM
Chain of GDP-loaded KRAS-G12V (P01116 1-188 isoform P01116-2 G12V): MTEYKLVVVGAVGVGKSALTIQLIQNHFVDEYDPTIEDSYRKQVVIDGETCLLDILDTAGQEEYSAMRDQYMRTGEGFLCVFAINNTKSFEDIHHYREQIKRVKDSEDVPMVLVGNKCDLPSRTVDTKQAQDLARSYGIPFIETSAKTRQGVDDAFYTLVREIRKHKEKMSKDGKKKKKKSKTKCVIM
Chain of GDP-loaded KRAS-G12D (P01116 1-188 isoform P01116-2 G12D): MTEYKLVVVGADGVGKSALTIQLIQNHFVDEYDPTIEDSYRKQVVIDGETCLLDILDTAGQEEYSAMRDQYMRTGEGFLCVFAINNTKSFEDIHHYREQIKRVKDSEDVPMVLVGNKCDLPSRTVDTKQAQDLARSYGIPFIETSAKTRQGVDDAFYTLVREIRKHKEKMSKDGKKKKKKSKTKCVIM

`C#Cc1c(F)c(F)cc2cc(O)cc(-c3c(F)cc4c(N5CC6(F)CCC(F)(C5)N6)nc(OCC56CCCN5CCC6)nc4c3F)c12` [Example 2-5]: the concentration for half-maximal inhibition (IC50) is 0.29 nM in assay [1], 0.15 nM on GDP-loaded KRAS-G12C, 0.2 nM at GDP-loaded KRAS-G12V and 0.61 nM on GDP-loaded KRAS-G12D. The EC50 in assay [2] came out at 8.69 nM; in assay [3], 3.01 nM; in assay [4] it was 6.29 nM; in assay [5], 61.7 nM.

In the case of `C#Cc1c(F)ccc2cc(O)cc(-c3c(Cl)cc4c(N5CC6(F)CCC(F)(C5)N6)nc(OC[C@@]56CCCN5C[C@H](F)C6)nc4c3F)c12` [Example 2-6], the IC50 in assay [1] is 5.93 nM; at GDP-loaded KRAS-G12C, 2.8 nM; on GDP-loaded KRAS-G12V it was 9.86 nM; on GDP-loaded KRAS-G12D, 25.8 nM. Besides, the concentration giving a half-maximal response (EC50) in assay [2] amounted to 5.13 nM; in assay [3], 1.75 nM; in assay [4], 6.11 nM; in assay [5] it was 27.5 nM.

In the case of `Cc1cc(-c2c(F)cc3c(N4CC5(F)CCC(F)(C4)N5)nc(OC[C@@]45CCCN4C[C@H](F)C5)nc3c2F)c2cccnc2c1N` [Example 2-7], the IC50 (in assay [1]; at GDP-loaded KRAS-G12C; on GDP-loaded KRAS-G12V; at GDP-loaded KRAS-G12D) was over 100 nM in each case. The EC50 in assay [2], in assay [3], in assay [4] and in assay [5] was over 1000 nM in each case.

Take `Cc1cc(-c2ncc3c(N4CC5(F)CCC(F)(C4)N5)nc(OC[C@@]45CCCN4C[C@H](F)C5)nc3c2F)c2cccnc2c1N` [Example 2-8]: the IC50 (in assay [1]; at GDP-loaded KRAS-G12C; on GDP-loaded KRAS-G12V; on GDP-loaded KRAS-G12D) was over 100 nM each time. The EC50 in assay [2], in assay [3], in assay [4] and in assay [5] was over 1000 nM throughout.

For `Cc1cc(-c2c(Cl)cc3c(N4CC5(F)CCC(F)(C4)N5)nc(OC[C@@]45CCCN4C[C@H](F)C5)nc3c2F)c2cccnc2c1N` [Example 2-9], the half-inhibitory concentration (IC50) (in assay [1]; on GDP-loaded KRAS-G12C; at GDP-loaded KRAS-G12V; on GDP-loaded KRAS-G12D) was over 100 nM throughout. For the same molecule, the EC50 in assay [2], in assay [3], in assay [4] and in assay [5] was over 1000 nM throughout.

Regarding `C#Cc1c(F)ccc2cc(N)cc(-c3c(F)cc4c(N5CC6(F)CCC(F)(C5)N6)nc(OCC56CCCN5CCC6)nc4c3F)c12` [Example 2-10], the IC50 in assay [1] was 3.67 nM; on GDP-loaded KRAS-G12C, 4.22 nM; at GDP-loaded KRAS-G12V it was 4.17 nM; on GDP-loaded KRAS-G12D, 17.4 nM. For the same molecule, the EC50 in assay [2] is 5.34 nM; in assay [3], 8.62 nM; in assay [4] it was 49 nM; in assay [5], 150 nM.

`C#Cc1c(F)ccc2cc(O)cc(-c3ncc4c(N5CC6(F)CCC(F)(C5)N6)nc(OC[C@@H]5CC[C@]6(COc7cc(C(F)(F)F)ncn7)CCCN56)nc4c3F)c12` [Example 2-11]: the IC50 in assay [1] was found to be 12.3 nM; on GDP-loaded KRAS-G12C, 16.8 nM; on GDP-loaded KRAS-G12V, 22.2 nM; at GDP-loaded KRAS-G12D it was 11.6 nM. Moreover, the EC50 in assay [2] was 24.5 nM; in assay [3], 5.79 nM; in assay [4] it was 56.3 nM; in assay [5] it was 54.5 nM.

For the molecule `C#Cc1c(F)ccc2cc(N)cc(-c3ncc4c(N5CC6(F)CCC(F)(C5)N6)nc(OC[C@@]56CCCN5C[C@H](F)C6)nc4c3F)c12` [Example 5-1, 4-(4-(1,5-difluoro-3,8-diazabicyclo[3.2.1]octan-3-yl)-8-fluoro-2-(((2R,7aS)-2-fluorotetrahydro-1H-pyrrolizin-7a(5H)-yl)methoxy)pyrido[4,3-d]pyrimidin-7-yl)-5-ethynyl-6-fluoronaphthalen-2-amine], the half-inhibitory concentration (IC50) in assay [1] was 2.31 nM; at GDP-loaded KRAS-G12C, 2.78 nM; on GDP-loaded KRAS-G12V it was 7.59 nM; at GDP-loaded KRAS-G12D, 15.1 nM. The concentration giving a half-maximal response (EC50) in assay [2] amounted to 2.94 nM; in assay [3] it was 4.99 nM; in assay [4], 8.41 nM; in assay [5], 25.9 nM.

For `C#Cc1c(F)ccc2cc(N)cc(-c3ncc4c(N5CC6(F)CCC(F)(C5)N6)nc(OC[C@@]56CCCN5[C@H](COc5cc(C(F)(F)F)ncn5)CC6)nc4c3F)c12` [Example 5-2], the IC50 was 0.94 nM in assay [1], 1.38 nM at GDP-loaded KRAS-G12C, 4.32 nM on GDP-loaded KRAS-G12V and 10.3 nM on GDP-loaded KRAS-G12D. Also, the EC50 turned out to be 6.04 nM in assay [2], 3.24 nM in assay [3], 27.1 nM in assay [4] and 63.9 nM in assay [5].

Turning to `C#Cc1c(F)ccc2cc(N)cc(-c3ncc4c(N5CC6(F)CCC(F)(C5)N6)nc(OCC56CCCN5CCC6)nc4c3F)c12` [Example 5-3], the IC50 in assay [1] worked out at 6.62 nM; at GDP-loaded KRAS-G12C, 6.7 nM; at GDP-loaded KRAS-G12V it was 26.1 nM; on GDP-loaded KRAS-G12D it was 42.5 nM. For the same molecule, the concentration for a half-maximal effect (EC50) was determined as 11.6 nM in assay [2], 15.6 nM in assay [3], 278 nM in assay [4] and 760 nM in assay [5].

Turning to `Cc1cc(N)nc(-c2c(F)cc3c(N4CC5(F)CCC(F)(C4)N5)nc(OC[C@@]45CCCN4C[C@H](F)C5)nc3c2F)c1C(F)(F)F` [Example 6-1, 6-(4-(1,5-difluoro-3,8-diazabicyclo[3.2.1]octan-3-yl)-6,8-difluoro-2-(((2R,7aS)-2-fluorotetrahydro-1H-pyrrolizin-7a(5H)-yl)methoxy)quinazolin-7-yl)-4-methyl-5-(trifluoromethyl)pyridin-2-amine], the IC50 (in assay [1]; at GDP-loaded KRAS-G12C; on GDP-loaded KRAS-G12V; on GDP-loaded KRAS-G12D) was over 100 nM each time. The EC50 is 48.4 nM in assay [2], 350 nM in assay [3], 616 nM in assay [4] and over 1000 nM in assay [5].

On to `Fc1cc2c(N3CC4(F)CCC(F)(C3)N4)nc(OC[C@@]34CCCN3C[C@H](F)C4)nc2c(F)c1-c1csc2ncnc(Cl)c12` [Example 6-2], for which the IC50 (in assay [1]; at GDP-loaded KRAS-G12C; at GDP-loaded KRAS-G12V; on GDP-loaded KRAS-G12D) was over 100 nM throughout. The EC50 in assay [2], in assay [3], in assay [4] and in assay [5] was over 1000 nM each time.

On to `Cc1cc(N)nc(-c2c(Cl)cc3c(N4CC5(F)CCC(F)(C4)N5)nc(OC[C@@]45CCCN4C[C@H](F)C5)nc3c2F)c1C(F)(F)F` [Example 7-1], for which the IC50 was over 89.2 nM in assay [1], over 100 nM on GDP-loaded KRAS-G12C, over 100 nM at GDP-loaded KRAS-G12V and over 100 nM at GDP-loaded KRAS-G12D. The EC50 is 47.5 nM in assay [2], 233 nM in assay [3], 672 nM in assay [4] and over 1000 nM in assay [5].

Take `Nc1cc2ccc(F)cc2c(-c2c(Cl)cc3c(N4CC5(F)CCC(F)(C4)N5)nc(OC[C@@]45CCCN4C[C@H](F)C5)nc3c2F)n1` [Example 7-2]: the IC50 (in assay [1]; at GDP-loaded KRAS-G12C; on GDP-loaded KRAS-G12V; at GDP-loaded KRAS-G12D) was over 100 nM throughout. For the same molecule, the EC50 in assay [2] was 524 nM; in assay [3], over 1000 nM; in assay [4] it was over 1000 nM; in assay [5], over 1000 nM.
